Our source for the melting point values is a melting point compilation (Tetko et al.; mined from patent text by program, amines drawn as free bases though some values may be those of a salt).

SMILES strings stand for the structures.

As usually defined, the melting point is the temperature of the solid-liquid transition. On to `O=C(Nc1ccc(-c2ncc(-c3ccc(NC(=O)C4CCCCCC4)cc3)[nH]2)cc1)c1cccnc1`, for which the melting point lay within 326 to 328 °C. Turning to `Cn1nc2nc(C(C)(C)C)[nH]c(=O)c2c1N=Cc1ccccc1`, the melting point was 250 to 253 °C. Then `O=c1c2cccnc2c(-c2cccc(Cl)c2)cn1Cc1cccs1`, with 142 to 145 °C; and `Cc1c(C)c2c(c(C)c1N)CC(C)(CN1CCN(C(=O)c3ccc(Cl)cc3)CC1)O2` (configuration not stated), with 136 to 138 °C; and `COc1ccc(-c2nnn(-c3cc(C)on3)c2N)cc1`, with 136 to 141 °C. Then `O=C(O)C1Cc2ccccc2CN1C(=O)c1ccc(F)c(F)c1` (configuration not stated), with 89 to 91 °C; and `O=c1[nH]c(CCCn2ccnc2)nc2ccc(Cl)cc12`, with 192 to 194 °C. As for `COC(=O)CC[C@H](NC(=O)c1ccc(NCCCc2c(NC(C)=O)nc(NC(C)=O)[nH]c2=O)cc1)C(=O)OC`, the figure is 135 to 142 °C; as for `CCn1ccccc1=S`, 50 °C; as for `C[C@H]1C[C@@](O)(c2cnc(Cl)s2)CCO1`, 40 to 42 °C. Compound `O=C(Nc1cccc(C(F)(F)F)c1)c1cccnc1NCc1ccc(=O)[nH]c1` gave a melting point of 200 to 202 °C.

With `CCOC(=O)NOC(=O)CCCCC(=O)ONC(=O)OCC`, the melting point worked out at 60 °C. `OCCSc1ccc2cc(SCCO)ccc2c1`: the melting point lay in the range of 113 to 117 °C. As for `CCOC(=O)c1sc(SC(C)C)c2c1CCC(NC(C)=O)C2=O` (configuration not stated), the figure is 170 to 171 °C. Then `COC1=C(OC)C(=O)C2=C(CC(CCCCCCCCOC(C)=O)C2)C1=O`, with 47 to 48 °C; and `c1ccc2c(c1)nc1n2CCC(CN2CCNCC2)S1` (configuration not stated), with 151 to 153 °C. For the compound `COC(=O)c1ccc(CCN(C)c2cn([C@H]3CCc4c(F)cc(F)cc4C3)c(=S)[nH]2)cc1`, the melting point is 159 to 160 °C. As for `COC(=O)c1ccc(-c2ccc(Cl)cc2)nc1`, the melting point was 124 to 126 °C. Then `Cc1sc(C=O)cc1Br`, with 58 °C; and `CC(CCCc1ccccc1)Oc1cc(O)c2c(c1)NCCC2=O` (configuration not stated), with 88 to 90 °C; and `CN(C)C(=O)n1cc(C(=O)C2CSC(c3cccnc3)N2C=O)c2ccc(OCc3ccccc3)cc21` (configuration not stated), with 90 °C. Then `Nc1nc2ccccc2c2c1nc(CCCOc1ccccc1)n2CCCNC(=O)N1CCOCC1`, with 199 to 200 °C; and `NC(=O)Cc1cccc(-c2csc(N=C(N)N)n2)n1`, with 254 °C.

For the compound `CC(C)n1c(=O)sc2cc(N3C[C@H](C(N)=O)OC3=O)ccc21`, the melting point was 183 to 184 °C.

As to `CC(NC(=O)C(NC(=O)c1ccccc1)SC(=O)c1ccccc1)C(=O)N1CCCC1C(=O)O` (configuration not stated), the melting point lay within 185 to 188 °C.

The compound `CCCCn1c(C)c(C2(c3c(C)n(CCCC)c4ccccc34)NNC(=O)c3ccccc32)c2ccccc21` gave a melting point of 206 °C. As for `CC(C)(c1ccc(Oc2cccc(N)c2)cc1)c1cccc(C(C)(C)c2ccc(Oc3cccc(N)c3)cc2)c1`, the figure is 94 to 96 °C; as for `Cc1ccc(-c2ccc3c(c2)C=C(C(=O)Nc2ccc(CN4CCN(C)CC4)cc2)CC3)cc1`, 174 to 175 °C; as for `O=c1n(CCCN2CCC(n3c(=O)[nH]c4ccccc43)CC2)nc2n1-c1ccccc1OC2`, 176 to 178 °C. As for `Cc1ccc2c(c1)-c1nn(-c3ccc(Cl)cc3)c(=O)cc1CS2`, the figure is 200 to 206 °C; as for `CC(C)c1ccccc1S(=O)(=O)c1ccc(O)cc1`, 160 °C. As for `N#Cc1cnc2cc(-c3ccc(CN4CCOCC4)o3)ccc2c1Nc1ccc(Cl)cc1Cl`, the figure is 118 to 120 °C; as for `COc1ccnc(CCc2nc3cc(-c4ccc(OC)c(OC)c4)cnc3[nH]2)c1`, 185 to 186 °C; as for `CCOC(=O)C1Cc2c([nH]c3ccc(C)cc23)C(c2ccccc2)N1` (configuration not stated), 128 to 130 °C.

Compound `CCNC(=O)Oc1cccc(CCNC(=O)/C=C/c2cccnc2)c1` yielded a melting point of 130 °C.

Regarding `CC(C)(C)C(=O)NCCCN(CCCNC(=O)C(C)(C)C)c1ccccc1`, the melting point was 72 °C. As for `Nc1cc(-c2ccc(Cl)c(Cl)c2)[nH]n1`, the figure is 169 to 170 °C; as for `CCN(CC)CCNC(=O)Cn1ncc(-c2ccccc2)c1-c1ccccc1`, 67 to 69 °C.

Turning to `CCCCOCCOC(=O)NCCCCCCNC(=O)OCCOCCCC`, the melting point is 64 to 66 °C.

As to `CC(=O)c1ccc(C#CCOC2CCC3C4CCC5CC(C)(O)CCC5(C)C4CCC23C)cc1` (configuration not stated), the melting point is 52 to 55 °C.

The compound `OCC=Cc1ccc(Br)cc1F` registered a melting point of 38 to 40 °C. As for `O=C(c1ccc(Cl)cc1)c1c(N2C(=O)c3ccccc3C2=O)sc(-c2ccccc2)c1CN1CCCCC1`, the figure is 187 to 189 °C. `Cc1cc(C)c(O)c(Cc2cc(C)cc(C)c2O)c1` gave a melting point of 125 to 126 °C.

Take `COc1ccc(OC)c2c(Cl)c(C#N)cnc12`: the melting point fell in the range of 165 to 167 °C. As for `O=C(C[C@H](C(=O)N[C@H](COC(=O)OCc1ccccc1)c1ccccc1)n1ccc(-c2ccc(-c3ccncc3)cc2)c1)OCc1ccccc1`, the figure is 138 to 140 °C. As to `Cc1ccc(-c2ccc(Cl)c(C(=O)NCC34CC5CC(CC(C5)C3)C4)c2)c(C(=O)O)n1`, the melting point fell in the range of 125 to 130 °C.

`Cc1ccc(S(=O)(=O)OCCN(CCOS(=O)(=O)c2ccc(C)cc2)Sc2ccccc2[N+](=O)[O-])cc1`: the melting point fell in the range of 91 to 93 °C. With `COc1c(F)c(N)cc(F)c1F`, the melting point is 45 to 47 °C. As for `CC1CCC2C3CC(=O)C4=CC(=O)CCC4(C)C3CCC12C` (configuration not stated), the figure is 94 to 95 °C; as for `CN1CC(CCCl)c2nc3ccccc3n2C1=O` (configuration not stated), 88 to 91 °C. Turning to `N#Cc1ccc(Nc2nc(N)nc(Cc3c(Cl)ccc4[nH]ccc34)n2)cc1`, the melting point lay within 267 to 268 °C. For the compound `CCOC(=O)C(=O)NNc1ccc([N+](=O)[O-])cc1`, the melting point lay in the range of 187 to 188 °C. As for `Cc1cc(SC2=C(O)CC(CCc3ccc(O)cc3)(C3CCCCC3)OC2=O)c(C(C)(C)C)cc1OS(=O)(=O)c1ccccc1` (configuration not stated), the figure is 180 °C; as for `CC1N=C(c2ccccc2F)c2cc(Br)ccc2NC1=O` (configuration not stated), 183 to 185 °C. The compound `COc1ccc(C(=O)C=Cc2ccc([N+](=O)[O-])cc2)cc1` yielded a melting point of 171 to 173 °C. Then `COc1cc(OC)nc(NC(=O)NS(=O)(=O)c2ccccc2S(=O)(=O)OCC(F)(F)F)n1`, with 203 to 205 °C; and `COC(=O)CC/C(C)=C/Cc1c(NC(=O)N(C)C)c2c(c(C)c1OC)COC2=O`, with 116 to 118 °C. Then `CCOc1ccc(C2SC(=N)NC2=O)c(OCC)c1` (configuration not stated), with 179 to 181 °C; and `Clc1ccc(OCc2cccs2)cc1`, with 45 to 47 °C.

`CCOC(=O)C(=CNc1ncnc2ccc(N(C(=O)CC(C)(C)C)C(=O)CC(C)(C)C)cc12)C(=O)OCC` came in with a melting point of 100 to 102 °C. With `Cn1cnnc1C(O)(c1ccc(Cl)cc1)c1ccc2c(c1)c(CCc1cccc(Cl)c1)cc(=O)n2C` (configuration not stated), the melting point was determined as 200 °C. The compound `O=C1C=CC2(C=C1)N=C(N1CCN(Cc3cccc(C(F)(F)F)c3)CC1)C=C2c1ccccc1` yielded a melting point of 135 °C.
